Results from ChEMBL document CHEMBL5223155, “Design, synthesis, and evaluation of pyrido.[3,4-b]pyrazin-2(1H)-one derivatives as potent FLT3 inhibitors” (Bioorg Med Chem, 2023).
pIC50: −log10 of the molar value. Active and inactive are the calls of the source. The calls are words filed in the database; no cut-off is given here.

Tests used:
[1] = molecular target: Receptor-type tyrosine-protein kinase FLT3 (Homo sapiens, UniProt P36888, D835Y)
Description: Inhibition of human FLT3 D835Y mutant using TK peptide as substrate incubated for 1 hr in presence of ATP by HTRF assay

[2] = molecular target: T1, Receptor-type tyrosine-protein kinase FLT3 (Homo sapiens, UniProt P36888)
T1 sequence (P36888 whole entry): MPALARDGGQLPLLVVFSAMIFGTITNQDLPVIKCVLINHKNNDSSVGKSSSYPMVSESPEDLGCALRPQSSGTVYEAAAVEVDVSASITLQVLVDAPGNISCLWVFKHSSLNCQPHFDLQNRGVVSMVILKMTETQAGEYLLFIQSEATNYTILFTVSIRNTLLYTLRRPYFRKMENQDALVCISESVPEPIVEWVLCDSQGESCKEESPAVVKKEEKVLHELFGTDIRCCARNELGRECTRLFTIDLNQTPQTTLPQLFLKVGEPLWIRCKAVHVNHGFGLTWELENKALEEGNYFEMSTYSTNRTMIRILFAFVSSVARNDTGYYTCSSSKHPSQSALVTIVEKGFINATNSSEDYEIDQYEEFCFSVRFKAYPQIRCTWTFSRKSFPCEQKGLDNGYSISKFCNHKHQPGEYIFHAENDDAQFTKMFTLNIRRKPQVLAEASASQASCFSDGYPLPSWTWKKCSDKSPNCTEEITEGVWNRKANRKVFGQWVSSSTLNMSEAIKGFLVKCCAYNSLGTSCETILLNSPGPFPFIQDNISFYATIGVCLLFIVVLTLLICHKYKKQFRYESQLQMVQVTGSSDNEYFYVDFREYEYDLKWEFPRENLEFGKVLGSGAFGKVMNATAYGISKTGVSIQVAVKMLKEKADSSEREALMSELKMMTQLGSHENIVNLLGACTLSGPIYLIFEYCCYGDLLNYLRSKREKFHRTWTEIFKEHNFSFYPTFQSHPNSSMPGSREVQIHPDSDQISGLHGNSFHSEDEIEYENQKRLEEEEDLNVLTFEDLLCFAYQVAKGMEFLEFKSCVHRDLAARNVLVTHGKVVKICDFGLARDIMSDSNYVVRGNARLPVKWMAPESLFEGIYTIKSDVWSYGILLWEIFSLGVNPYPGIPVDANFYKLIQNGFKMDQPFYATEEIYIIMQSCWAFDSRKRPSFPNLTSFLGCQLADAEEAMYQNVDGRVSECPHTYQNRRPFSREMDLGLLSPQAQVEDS
Description: Inhibition of human wild type FLT3 using TK peptide as substrate incubated for 1 hr in presence of ATP by HTRF assay

MOLM-13 = assay: Antiproliferative activity against human MOLM-13 cells assessed as inhibition of cell growth incubated for 72 hrs by MTS assay; format: functional, cell-based; details: MOLM-13, 72 h
MV4-11 = assay: cells; details: Homo sapiens, MV4-11, 72 h
Description: Antiproliferative activity against human MV4-11 cells assessed as inhibition of cell growth incubated for 72 hrs by MTS assay

BaF3 [3] = assay: cells; details: Mus musculus, BaF3, 72 h
Description: Antiproliferative activity against mouse BaF3 cells harboring FLT3-ITD mutant assessed as inhibition of cell growth incubated for 72 hrs by MTS assay

BaF3 [4] = assay: cells; details: Mus musculus, BaF3, 72 h; remark: listed apart in the source
Description: Antiproliferative activity against mouse BaF3 cells harboring FLT3-ITD/D835Y mutant assessed as inhibition of cell growth incubated for 72 hrs by MTS assay

BaF3 [5] = assay: cells; details: Mus musculus, BaF3, 72 h; remark: listed apart in the source
Description: Antiproliferative activity against mouse BaF3 cells harboring FLT3-D835V mutant assessed as inhibition of cell growth incubated for 72 hrs by MTS assay

BaF3 [6] = assay: cells; details: Mus musculus, BaF3, 72 h; remark: listed apart in the source
Description: Antiproliferative activity against mouse BaF3 cells harboring FLT3-D835F mutant assessed as inhibition of cell growth incubated for 72 hrs by MTS assay

BaF3 [7] = assay: cells; details: Mus musculus, BaF3, 72 h; remark: listed apart in the source
Description: Antiproliferative activity against mouse BaF3 cells harboring FLT3-F691L mutant assessed as inhibition of cell growth incubated for 72 hrs by MTS assay

[8] = Antiproliferative activity against human MINO cells assessed as inhibition of cell growth incubated for 72 hrs by MTS assay; format: functional, cell-based
Rec1 = assay: Antiproliferative activity against human REC1 cells assessed as inhibition of cell growth incubated for 72 hrs by MTS assay; format: functional, cell-based; details: Rec1, 72 h
[9] = molecular target: Receptor-type tyrosine-protein kinase FLT3 (Homo sapiens) (UniProt P36888); assay: Inhibition of FLT3 in human MV4-11 cells assessed as reduction in ERK phosphorylation by Western blotting analysis; format: cell-based; details: dose 10-1000 nM
MM1.S = assay: Antiproliferative activity against human MM1.S cells assessed as inhibition of cell growth incubated for 72 hrs by MTS assay; format: functional, cell-based
[10] = molecular target: Receptor-type tyrosine-protein kinase FLT3 (Homo sapiens) (UniProt P36888); assay: Inhibition of FLT3 in human MV4-11 cells assessed as reduction in STAT5 phosphorylation by Western blotting analysis; format: cell-based; details: dose 10-1000 nM
[11] = molecular target: Receptor-type tyrosine-protein kinase FLT3 (Homo sapiens) (UniProt P36888); assay: Inhibition of FLT3 in human MV4-11 cells assessed as reduction in STAT5 phosphorylation at 100 nM by Western blotting analysis; format: cell-based
[12] = molecular target: Receptor-type tyrosine-protein kinase FLT3 (Homo sapiens) (UniProt P36888); assay: Inhibition of FLT3 in human MV4-11 cells assessed as reduction in ERK phosphorylation at 100 nM by Western blotting analysis; format: cell-based
OCI-AML-3 = assay: Antiproliferative activity against human OCI-AML-3 cells assessed as inhibition of cell growth incubated for 72 hrs by MTS assay; format: functional, cell-based; details: OCI-AML-3, 72 h
HL-60 = assay: Antiproliferative activity against human HL-60 cells assessed as inhibition of cell growth incubated for 72 hrs by MTS assay; format: functional, cell-based; details: HL-60, 72 h
HCC1954 = assay: Antiproliferative activity against human HCC1954 cells assessed as inhibition of cell growth incubated for 72 hrs by MTS assay; format: functional, cell-based; details: HCC1954, 72 h
[13] = Metabolic stability in ICR/CD mouse liver microsomes assessed as compound remaining at 100 uM preincubated with NADPH for 5 mins followed by compound addition and measured upto 90 mins by LC-MS/MS method; format: ADME, Microsome; details: time < 95 min, read-out: Stability
[14] = molecular target: Receptor-type tyrosine-protein kinase FLT3 (Homo sapiens) (UniProt P36888); assay: Inhibition of FLT3 in human MV4-11 cells assessed as reduction in AKT phosphorylation by Western blotting analysis; format: cell-based; details: dose 10-1000 nM
MOLT-4 = assay: Antiproliferative activity against human MOLT-4 cells assessed as inhibition of cell growth incubated for 72 hrs by MTS assay; format: functional, cell-based; details: MOLT-4, 72 h
RS4-11 = assay: Antiproliferative activity against human RS4-11 cells assessed as inhibition of cell growth incubated for 72 hrs by MTS assay; format: functional, cell-based; details: RS4-11, 72 h
KG-1 = assay: Antiproliferative activity against human KG-1 cells assessed as inhibition of cell growth incubated for 72 hrs by MTS assay; format: functional, cell-based; details: KG-1, 72 h
[15] = Antiproliferative activity against human PBMCs assessed as inhibition of cell growth incubated for 72 hrs by MTS assay; format: toxicity, cell-based, PBMC
Z-138 = assay: Antiproliferative activity against human Z138 cells assessed as inhibition of cell growth incubated for 72 hrs by MTS assay; format: functional, cell-based; details: Z-138, 72 h
[16] = molecular target: Receptor-type tyrosine-protein kinase FLT3 (Homo sapiens) (UniProt P36888); assay: Inhibition of FLT3 in human MV4-11 cells assessed as reduction in FLT3 autophosphorylation at Tyr589/591 at 10 to 1000 nM by Western blotting analysis; format: cell-based; details: dose 10-1000 nM
WI-38 = assay: Antiproliferative activity against human WI-38 cells assessed as inhibition of cell growth incubated for 72 hrs by MTS assay; format: functional, cell-based; details: WI-38, 72 h
JeKo-1 = assay: Antiproliferative activity against human JeKo-1 cells assessed as inhibition of cell growth incubated for 72 hrs by MTS assay; format: functional, cell-based; details: JeKo-1, 72 h

SMILES: CN1CCN(c2ccc(Nc3ccc4ncc(=O)n(-c5ccc(N)cc5)c4n3)nc2)CC1
- pIC50 [1]: 5.18
- pIC50 [2]: 5.60

SMILES: CN1CCN(c2ccc(Nc3cc4c(cn3)ncc(=O)n4-c3ccc(CN)cc3)nc2)CC1
- pIC50 [1]: 6.09
- pIC50 [2]: 5.98

SMILES: Cc1cc(Nc2cc3c(cn2)ncc(=O)n3-c2ccc(N)cc2)ncc1N1CCC(F)(F)CC1
- pIC50 [1]: 6.92
- pIC50 [2]: 6.54

SMILES: Cc1cc(Nc2cc3c(cn2)ncc(=O)n3-c2ccc(N)cc2)ncc1N1CCSCC1
- pIC50 [1]: 7.05
- pIC50 (MOLM-13): 6.06
- pIC50 [2]: 6.73
- pIC50 (MV4-11): 7.01

SMILES: CC(=O)Nc1ccc(-n2c(=O)cnc3cnc(Nc4ccc(N5CCN(C)CC5)cc4)cc32)cc1
- pIC50 [1]: 5.61
- pIC50 [2]: 5.57

SMILES: Cc1cc(Nc2cc3c(cn2)ncc(=O)n3-c2ccc(N)cc2)ncc1N1CCN(C)CC1
- pIC50 [1]: 7.39
- pIC50 (MOLM-13): 6.60
- pIC50 [2]: 7.30
- pIC50 (MV4-11): 7.52

SMILES: Cc1cc(Nc2cc3c(cn2)ncc(=O)n3-c2ccc(N)cc2)ncc1N1C[C@@H](C)N[C@@H](C)C1
- pIC50 [1]: 7.48
- pIC50 (MOLM-13): 6.72
- pIC50 (BaF3 [3]): 6.17
- pIC50 [2]: 7.07
- pIC50 (BaF3 [4]): 6.77
- pIC50 (BaF3 [5]): 7.15
- pIC50 (BaF3 [6]): 6.16
- pIC50 (BaF3 [7]): 6.59
- pIC50 (MV4-11): 7.62

SMILES: CN1CCN(c2ccc(Nc3cc4c(cn3)ncc(=O)n4-c3cccc(N)c3)nc2)CC1
- pIC50 [1]: 6.14
- pIC50 [2]: 6.04

SMILES: Cc1cc(Nc2cc3c(cn2)ncc(=O)n3-c2ccc(N)cc2)ncc1N1CCC(O)CC1
- pIC50 [1]: 6.81
- pIC50 [2]: 6.71

SMILES: Cc1cc(Nc2cc3c(cn2)ncc(=O)n3-c2ccc(N)cc2)ncc1N1CCOCC1
- pIC50 [1]: 4.93
- pIC50 [2]: < 8.00

SMILES: CC(=O)N1CCN(c2cnc(Nc3cc4c(cn3)ncc(=O)n4-c3ccc(N)cc3)cc2C)CC1
- pIC50 [1]: 6.91
- pIC50 [2]: 6.78

SMILES: Cc1cc(Nc2cc3c(cn2)ncc(=O)n3-c2ccc(N)cc2)ncc1NC1CCN(C)CC1
- pIC50 [1]: 6.46
- pIC50 [2]: 6.36

SMILES: CCN1CCN(c2cnc(Nc3cc4c(cn3)ncc(=O)n4-c3ccc(N)cc3)cc2C)CC1
- pIC50 [1]: 7.29
- pIC50 (MOLM-13): 6.64
- pIC50 [2]: 6.99
- pIC50 (MV4-11): 7.51

SMILES: Cc1cc(Nc2cc3c(cn2)ncc(=O)n3-c2ccc(N)cc2)ncc1N1CCC(N)CC1
- pIC50 [1]: 7.38
- pIC50 (MOLM-13): 6.19
- pIC50 [2]: 7.14
- pIC50 (MV4-11): 7.28

SMILES: CN1CCN(c2ccc(Nc3cc4c(cn3)ncc(=O)n4-c3ccc(N(C)C)cc3)nc2)CC1
- pIC50 [1]: 6.20
- pIC50 [2]: 6.13

SMILES: Cc1cc(Nc2cc3c(cn2)ncc(=O)n3-c2ccc(N)cc2)ncc1N1CCN(C(C)C)CC1
- pIC50 [1]: 7.52
- pIC50 [8]: 5.96
- pIC50 (Rec1): 5.41
- inhibition [9]: Dose-Dependent Effect
- pIC50 (MOLM-13): 6.88
- pIC50 (MM1.S): 5.80
- inhibition [10]: Dose-Dependent Effect
- inhibition [11]: 100%
- pIC50 (BaF3 [3]): 6.87
- inhibition [12]: 100%
- pIC50 (OCI-AML-3): 5.19
- pIC50 (HL-60): 5.19
- pIC50 (HCC1954): 4.94
- pIC50 [2]: 7.21
- pIC50 (BaF3 [4]): 7.59
- remaining at 1.5 h, 100 µM [13]: > 80%
- pIC50 (BaF3 [5]): 8.10
- inhibition [14]: Dose-Dependent Effect
- pIC50 (MOLT-4): 5.36
- pIC50 (RS4-11): 5.85
- pIC50 (KG-1): 5.61
- IC50 at 72 h [15]: 3270 nM
- pIC50 (BaF3 [6]): 6.88
- pIC50 (Z-138): 5.84
- inhibition [16]: Active
- pIC50 (WI-38): 4.78
- pIC50 (JeKo-1): 5.82
- pIC50 (BaF3 [7]): 7.40
- pIC50 (MV4-11): 7.82

SMILES: CC(=O)Nc1ccc(-n2c(=O)cnc3cnc(Nc4ccc(N5CCN(C)CC5)cn4)cc32)cc1
- pIC50 [1]: 6.24
- pIC50 [2]: 6.03

SMILES: CN1CCN(c2ccc(Nc3cc4c(cn3)ncc(=O)n4-c3ccc(NS(C)(=O)=O)cc3)nc2)CC1
- pIC50 [1]: 6.16
- pIC50 [2]: 6.07

SMILES: CN1CCN(c2ccc(Nc3cc4c(cn3)ncc(=O)n4-c3ccc(N)cc3)nc2)CC1
- pIC50 [1]: 6.19
- pIC50 [2]: 6.22

SMILES: Cc1cc(Nc2cc3c(cn2)ncc(=O)n3-c2ccc(N)cc2)ncc1N1CCNCC1
- pIC50 [1]: 7.47
- pIC50 (MOLM-13): 6.36
- pIC50 (BaF3 [3]): 5.50
- pIC50 [2]: 6.99
- pIC50 (BaF3 [4]): 6.20
- pIC50 (BaF3 [5]): 6.79
- pIC50 (BaF3 [6]): 5.51
- pIC50 (BaF3 [7]): 6.06
- pIC50 (MV4-11): 7.59

SMILES: Cc1cc(Nc2cc3c(cn2)ncc(=O)n3-c2ccc(N)cc2)ncc1N1CCN(C2CC2)CC1
- pIC50 [1]: 7.42
- pIC50 (MOLM-13): 6.44
- pIC50 [2]: 6.99
- pIC50 (MV4-11): 7.44

SMILES: CN1CCN(c2ccc(Nc3ccc4ncc(=O)n(-c5ccc(N)cc5)c4n3)cc2)CC1
- pIC50 [1]: 5.18
- pIC50 [2]: 5.42

SMILES: CN1CCN(c2ccc(Nc3cc4c(cn3)ncc(=O)n4-c3ccc(N)cc3)cc2)CC1
- pIC50 [1]: 5.55
- pIC50 [2]: 5.66

SMILES: Cc1cc(Nc2cc3c(cn2)ncc(=O)n3-c2ccc(N)cc2)ncc1N1CCN(S(C)(=O)=O)CC1
- pIC50 [1]: 7.05
- pIC50 (MOLM-13): 6.16
- pIC50 [2]: 6.91
- pIC50 (MV4-11): 7.17
